From patent US20210308173A1, “PHARMACEUTICAL COMPOSITION COMPRISING CYCLODEXTRIN COMPLEXES OF ANETHOLE TRITHIONE OR DERIVATIVES THEREOF” (priority 2018, published 2021)
In brackets after ≈: the same amount, converted by molar mass. Like-named read-outs stand apart in the source and are kept apart here.

Experiments:
[1] = Cyclodextrin-AOL solubility diagrams; assay type: physicochemical; conditions: for solubility: 4 °C; for solubility / solubility at 4 h: aqueous with cosolvent or surfactant or cyclodextrin, thermodynamic from solid
Description: A cyclodextrin-AOL solubility diagram would reveal the profile of the solubility curve of the AOL depending on the concentration of the cyclodextrin. The principle of this method is to add an excess of AOL to cyclodextrin solutions of increasing concentration, then to measure the amount of solubilized AOL. This method confirms the solubilization and evaluates more precisely the cyclodextrin solubilizing power, to define a stoichiometry of the complexes (molar and mass ratios) over the entire range of concentrations studied and to estimate the solubility limit and the stability of the mixtures.
The solubilization was carried out with HP-β-CD and SBE-β-CD in a range of concentration ranging from 2.5% to 40% (m/m) at 20° C., 25° C. and 30° C. To check the stability of the solution, a storage test at 4° C. for 48 hours was carried out with the solutions previously prepared at 20° C.
Aqueous solutions of cyclodextrin at in weight (m/m) concentrations of 2.5%, 5%, 10%, 20%, 30% and 40% were prepared in pure water. An excess of AOL was suspended in 2 mL each of these solutions. Each sample is shaken at 20° C., 25° C. or 30° C. for 4 hours (vortex at 1400 rpm). Each sample is centrifuged (12,500 g) and filtered through a 0.45 μm membrane.
The solubility of AOL in each test solution was quantified by HPLC as detailed in Example 2.

[2] = Cyclodextrin solubilization screening of AOL; assay type: physicochemical; conditions: water, 25 °C, thermodynamic from solid, read-out: intrinsic solubility in water
[3] = SBE-β-CD 20% (w/w), 20° C. followed by 48 hours at 4° C.
[4] = SBE-β-CD 30% (w/w), 20° C. followed by 48 hours at 4° C.
[5] = SBE-β-CD 40% (w/w), 20° C. followed by 48 hours at 4° C.

For `COc1ccc(-c2cc(=S)ss2)cc1` [AOL, 5-(4-methoxyphenyl)-3H-1,2-dithiole-3-thione], the “CD/AOL weight ratio Rm” value ([1]; SBE-β-CD 20% (w/w), 20° C.) was 722, the “CD/AOL molar ratio RM” value [1, 3] was 130 and the “CD/AOL weight ratio Rm” value [1, 3] was 1211. The “CD/AOL molar ratio RM” value ([1]; SBE-β-CD 20% (w/w), 25° C.) was 63, the “CD/AOL weight ratio Rm” value ([1]; SBE-β-CD 20% (w/w), 25° C.) was 587 and the “CD/AOL molar ratio RM” value ([1]; SBE-β-CD 20% (w/w), 30° C.) was 50. The “CD/AOL weight ratio Rm” value ([1]; SBE-β-CD 20% (w/w), 30° C.) was 469, the “CD/AOL molar ratio RM” value ([1]; SBE-β-CD 30% (w/w), 20° C.) was 70 and the “CD/AOL weight ratio Rm” value ([1]; SBE-β-CD 30% (w/w), 20° C.) was 650. For the same compound, the “CD/AOL molar ratio RM” value [1, 4] was 112, the “CD/AOL weight ratio Rm” value [1, 4] was 1049 and the “CD/AOL molar ratio RM” value ([1]; SBE-β-CD 30% (w/w), 25° C.) was 56. For the same compound, the “CD/AOL weight ratio Rm” value ([1]; SBE-β-CD 30% (w/w), 25° C.) was 522, the “CD/AOL molar ratio RM” value ([1]; SBE-β-CD 30% (w/w), 30° C.) was 45 and the “CD/AOL weight ratio Rm” value ([1]; SBE-β-CD 30% (w/w), 30° C.) was 417. For the same compound, the “CD/AOL molar ratio RM” value ([1]; SBE-β-CD 40% (w/w), 20° C.) was 64, the “CD/AOL weight ratio Rm” value ([1]; SBE-β-CD 40% (w/w), 20° C.) was 600 and the “CD/AOL molar ratio RM” value [1, 5] was 94. The “CD/AOL weight ratio Rm” value [1, 5] was 876, the “CD/AOL molar ratio RM” value ([1]; SBE-β-CD 40% (w/w), 25° C.) was 51 and the “CD/AOL weight ratio Rm” value ([1]; SBE-β-CD 40% (w/w), 25° C.) was 474. For the same compound, the “CD/AOL molar ratio RM” value ([1]; SBE-β-CD 40% (w/w), 30° C.) was 41, the “CD/AOL weight ratio Rm” value ([1]; SBE-β-CD 40% (w/w), 30° C.) was 383 and the solubility ([1]; aqueous HP-β-CD solution, HP-β-CD 2.5% (w/w), 20° C. followed by 48 hours at 4° C.) was 11.6 µg/mL (≈ 48.3 µM). The solubility ([1]; aqueous HP-β-CD solution, HP-β-CD 5% (w/w), 20° C. followed by 48 hours at 4° C.) was 25.1 µg/mL (≈ 104 µM), the solubility ([1]; aqueous HP-β-CD solution, HP-β-CD 10% (w/w), 20° C. followed by 48 hours at 4° C.) was 52.7 µg/mL (≈ 219 µM) and the solubility ([1]; aqueous HP-β-CD solution, HP-β-CD 20% (w/w), 20° C. followed by 48 hours at 4° C.) was 109 µg/mL (≈ 452 µM). It also gave a solubility ([1]; aqueous HP-β-CD solution, HP-β-CD 30% (w/w), 20° C. followed by 48 hours at 4° C.) of 187 µg/mL (≈ 777 µM), a solubility ([1]; aqueous HP-β-CD solution, HP-β-CD 40% (w/w), 20° C. followed by 48 hours at 4° C.) of 270 µg/mL (≈ 1120 µM) and a solubility at 4 h ([1]; aqueous HP-β-CD solution, 20 °C, HP-β-CD 2.5% (w/w), 20° C., read-out: AOL solubility) of 13.4 µg/mL (≈ 55.7 µM). It also gave a solubility at 4 h ([1]; aqueous HP-β-CD solution, 20 °C, HP-β-CD 5% (w/w), 20° C., read-out: AOL solubility) of 27.3 µg/mL (≈ 114 µM), a solubility at 4 h ([1]; aqueous HP-β-CD solution, 30 °C, HP-β-CD 40% (w/w), 30° C., read-out: AOL solubility) of 644 µg/mL (≈ 2680 µM) and a solubility ([1]; aqueous SBE-β-CD solution, SBE-β-CD 2.5% (w/w), 20° C. followed by 48 hours at 4° C.) of 16.9 µg/mL (≈ 70.3 µM). For the same compound, the solubility ([1]; aqueous SBE-β-CD solution, SBE-β-CD 5% (w/w), 20° C. followed by 48 hours at 4° C.) was 34.6 µg/mL (≈ 144 µM), the solubility ([1]; aqueous SBE-β-CD solution, SBE-β-CD 10% (w/w), 20° C. followed by 48 hours at 4° C.) was 70.7 µg/mL (≈ 294 µM) and the solubility ([1]; aqueous SBE-β-CD solution, SBE-β-CD 20% (w/w), 20° C. followed by 48 hours at 4° C.) was 165 µg/mL (≈ 687 µM). It also gave a solubility ([1]; aqueous SBE-β-CD solution, SBE-β-CD 30% (w/w), 20° C. followed by 48 hours at 4° C.) of 286 µg/mL (≈ 1190 µM), a solubility ([1]; aqueous SBE-β-CD solution, SBE-β-CD 40% (w/w), 20° C. followed by 48 hours at 4° C.) of 457 µg/mL (≈ 1900 µM) and a solubility at 4 h ([1]; aqueous SBE-β-CD solution, 20 °C, SBE-β-CD 2.5% (w/w), 20° C., read-out: AOL solubility) of 29.3 µg/mL (≈ 122 µM). It also gave a solubility at 4 h ([1]; aqueous SBE-β-CD solution, 20 °C, SBE-β-CD 5% (w/w), 20° C., read-out: AOL solubility) of 59.7 µg/mL (≈ 248 µM), a solubility at 4 h ([1]; aqueous SBE-β-CD solution, 20 °C, SBE-β-CD 10% (w/w), 20° C., read-out: AOL solubility) of 125 µg/mL (≈ 521 µM) and a solubility at 4 h ([1]; aqueous SBE-β-CD solution, 20 °C, SBE-β-CD 20% (w/w), 20° C., read-out: AOL solubility) of 277 µg/mL (≈ 1150 µM). It also gave a solubility at 4 h ([1]; aqueous SBE-β-CD solution, 20 °C, SBE-β-CD 30% (w/w), 20° C., read-out: AOL solubility) of 462 µg/mL (≈ 1920 µM), a solubility at 4 h ([1]; aqueous SBE-β-CD solution, 20 °C, SBE-β-CD 40% (w/w), 20° C., read-out: AOL solubility) of 667 µg/mL (≈ 2770 µM) and a solubility at 4 h ([1]; aqueous SBE-β-CD solution, 25 °C, SBE-β-CD 2.5% (w/w), 25° C., read-out: AOL solubility) of 35.8 µg/mL (≈ 149 µM). The solubility at 4 h ([1]; aqueous SBE-β-CD solution, 25 °C, SBE-β-CD 5% (w/w), 25° C., read-out: AOL solubility) was 74.9 µg/mL (≈ 312 µM), the solubility at 4 h ([1]; aqueous SBE-β-CD solution, 25 °C, SBE-β-CD 10% (w/w), 25° C., read-out: AOL solubility) was 156 µg/mL (≈ 651 µM) and the solubility at 4 h ([1]; aqueous SBE-β-CD solution, 25 °C, SBE-β-CD 20% (w/w), 25° C., read-out: AOL solubility) was 340 µg/mL (≈ 1420 µM). For the same compound, the solubility at 4 h ([1]; aqueous SBE-β-CD solution, 25 °C, SBE-β-CD 30% (w/w), 25° C., read-out: AOL solubility) was 575 µg/mL (≈ 2390 µM), the solubility at 4 h ([1]; aqueous SBE-β-CD solution, 25 °C, SBE-β-CD 40% (w/w), 25° C., read-out: AOL solubility) was 844 µg/mL (≈ 3510 µM) and the solubility at 4 h ([1]; aqueous SBE-β-CD solution, 30 °C, SBE-β-CD 2.5% (w/w), 30° C., read-out: AOL solubility) was 44.7 µg/mL (≈ 186 µM). For the same compound, the solubility at 4 h ([1]; aqueous SBE-β-CD solution, 30 °C, SBE-β-CD 5% (w/w), 30° C., read-out: AOL solubility) was 96.2 µg/mL (≈ 400 µM), the solubility at 4 h ([1]; aqueous SBE-β-CD solution, 30 °C, SBE-β-CD 10% (w/w), 30° C., read-out: AOL solubility) was 197 µg/mL (≈ 821 µM) and the solubility at 4 h ([1]; aqueous SBE-β-CD solution, 30 °C, SBE-β-CD 20% (w/w), 30° C., read-out: AOL solubility) was 427 µg/mL (≈ 1780 µM). It also gave a solubility at 4 h ([1]; aqueous SBE-β-CD solution, 30 °C, SBE-β-CD 30% (w/w), 30° C., read-out: AOL solubility) of 720 µg/mL (≈ 3000 µM), a solubility at 4 h ([1]; aqueous SBE-β-CD solution, 30 °C, SBE-β-CD 40% (w/w), 30° C., read-out: AOL solubility) of 1040 µg/mL (≈ 4340 µM) and a solubility at 4 h ([1]; aqueous cyclodextrin solution, 20 °C, HP-β-CD 10% (w/w), 20° C., read-out: AOL solubility) of 61.3 µg/mL (≈ 255 µM). It also gave a solubility at 4 h ([1]; aqueous cyclodextrin solution, 20 °C, HP-β-CD 20% (w/w), 20° C., read-out: AOL solubility) of 145 µg/mL (≈ 602 µM), a solubility at 4 h ([1]; aqueous cyclodextrin solution, 20 °C, HP-β-CD 30% (w/w), 20° C., read-out: AOL solubility) of 243 µg/mL (≈ 1010 µM) and a solubility at 4 h ([1]; aqueous cyclodextrin solution, 20 °C, HP-β-CD 40% (w/w), 20° C., read-out: AOL solubility) of 344 µg/mL (≈ 1430 µM). It also gave a solubility at 4 h ([1]; aqueous cyclodextrin solution, 25 °C, HP-β-CD 2.5% (w/w), 25° C., read-out: AOL solubility) of 19.5 µg/mL (≈ 81.1 µM), a solubility at 4 h ([1]; aqueous cyclodextrin solution, 25 °C, HP-β-CD 5% (w/w), 25° C., read-out: AOL solubility) of 40.1 µg/mL (≈ 167 µM) and a solubility at 4 h ([1]; aqueous cyclodextrin solution, 25 °C, HP-β-CD 10% (w/w), 25° C., read-out: AOL solubility) of 83.9 µg/mL (≈ 349 µM). It also gave a solubility at 4 h ([1]; aqueous cyclodextrin solution, 25 °C, HP-β-CD 20% (w/w), 25° C., read-out: AOL solubility) of 184 µg/mL (≈ 766 µM), a solubility at 4 h ([1]; aqueous cyclodextrin solution, 25 °C, HP-β-CD 30% (w/w), 25° C., read-out: AOL solubility) of 287 µg/mL (≈ 1200 µM) and a solubility at 4 h ([1]; aqueous cyclodextrin solution, 25 °C, HP-β-CD 40% (w/w), 25° C., read-out: AOL solubility) of 418 µg/mL (≈ 1740 µM). The solubility at 4 h ([1]; aqueous cyclodextrin solution, 30 °C, 30° C., 40% (w/w) HP-β-CD, read-out: highest solubility reached) was 650 µg/mL (≈ 2700 µM), the solubility at 4 h ([1]; aqueous cyclodextrin solution, 30 °C, 30° C., 40% SBE-β-CD, read-out: solubility) was > 1000 µg/mL and the solubility at 4 h ([1]; aqueous cyclodextrin solution, 30 °C, HP-β-CD 2.5% (w/w), 30° C., read-out: AOL solubility) was 26.1 µg/mL (≈ 109 µM). The solubility at 4 h ([1]; aqueous cyclodextrin solution, 30 °C, HP-β-CD 5% (w/w), 30° C., read-out: AOL solubility) was 51.4 µg/mL (≈ 214 µM), the solubility at 4 h ([1]; aqueous cyclodextrin solution, 30 °C, HP-β-CD 10% (w/w), 30° C., read-out: AOL solubility) was 114 µg/mL (≈ 476 µM) and the solubility at 4 h ([1]; aqueous cyclodextrin solution, 30 °C, HP-β-CD 20% (w/w), 30° C., read-out: AOL solubility) was 255 µg/mL (≈ 1060 µM). The solubility at 4 h ([1]; aqueous cyclodextrin solution, 30 °C, HP-β-CD 30% (w/w), 30° C., read-out: AOL solubility) was 458 µg/mL (≈ 1900 µM) and the solubility [2] was ~0.2 µg/mL (≈ 0.832 µM).
